Assay results as given in the SangsterLogP compilation.

**Q.** For BrCC(Br)C(Br)CBr (centres undefined), which logP is on record?
**A.** The logP was 3.22.

**Q.** For CCCCCCCCCCCCCCCCCCCl, which logP is on record?
**A.** Its logP is 8.7.

**Q.** With Brc1ccc(Br)s1 as the compound, how does the logP read?
**A.** The logP was 4.15.

**Q.** With c1ccc2c(c1)ccc1cc3c(ccc4ccccc43)cc12 as the compound, how does the logP read?
**A.** The logP was 6.88.

**Q.** With CC(C)CC(C)(C)C as the compound, how does the logP read?
**A.** Its logP is 5.83.

**Q.** With c1ccc(C2CCCCC2)cc1 as the compound, how does the logP read?
**A.** The logP was 5.54.

**Q.** For CCCCCCCCCCCCCCCCC, which logP is on record?
**A.** The logP was 8.92.

**Q.** Which logP does the source give for CCCCC(CC)CCl (centres undefined) here?
**A.** Its logP is 5.2.

**Q.** With Clc1cc(Cl)c(-c2c(Cl)cc(Cl)cc2Cl)c(Cl)c1 as the compound, how does the logP read?
**A.** Its logP is 6.39.

**Q.** With C=CCCCCCCC=C as the compound, how does the logP read?
**A.** The logP was 5.7.

**Q.** With C=C(C)CC(C)(C)C as the compound, how does the logP read?
**A.** Its logP is 5.44.

**Q.** Which logP does the source give for c1ccc(Cc2ccccc2)cc1 here?
**A.** Its logP is 4.22.

**Q.** With CCCCCCCCCC as the compound, how does the logP read?
**A.** Its logP is 6.69.

**Q.** With CCCCCCC(=O)OC as the compound, how does the logP read?
**A.** Its logP is 3.1.
